Patent US20110269226A1, “Microfluidic Continuous Flow Device for Culturing Biological Material” (priority 2008, published 2011)

Tests used:
[1] = tested on: medeka fish embryo; test: Effect of chemical substances on fish embryo development in cultivation chamber of microfluidic continuous flow device; format: in vivo, Medaka (Oryzias latipes); conditions: for death of the Medaka embryos: after 25 hours
Excerpt: A medeka fish embryo was introduced into the cultivation chamber using a pipette. The fish embryos maintain the same size until they hatch. Once all the embryos are transferred to the 8 wells of the microfluidic continuous flow device shown in FIG. 1, a coverslip is placed over the wells to seal them off.
In two different experiments EtOH (ethanol, 0-5%) and TAA ([…], 0-3%) were used as chemical substances to test the reaction of the fish embryo retained in the cultivation chamber of the microfluidic continuous flow device shown in FIG. 1. Both substances affect the liver (TAA induces lipid peroxidation which leads to liver damage). An over-dosage of both will lead to death. The flow rate in the microfluidic continuous flow device is about 1 ml/2.5 hours or 400 μl/h.

[2] = tested on: zebrafish; conditions: cited from earlier work

## CCO [EtOH, ethanol]
[1]; EtOH 0 to 5 v/v %, over 25 hours
  intoxication of the embryo versus concentration: The higher the concentration of the EtOH, the intoxicated the embryo is
[1]; EtOH highest concentration (4.27% and 5%), 25 hours
  effect on organs: the organs seem to be affected
[1]; ethanol, the higher concentrations
  organ colour change: the organs turned black
[1]; rising ethanol concentration (0 to 5 v/v %)
  number of twitches (movements) of the embryo in the chamber: the number of twitches rose with the ethanol concentration

## CC1(C)O[C@@H]2C[C@H]3[C@@H]4CCC5=CC(=O)C=C[C@]5(C)[C@@]4(F)[C@@H](O)C[C@]3(C)[C@]2(C(=O)CO)O1 [TAA, triamcinolone acetonide]
[1]; TAA 1.5, 2 and 2.5 v/v %
  death of the Medaka embryos: died
[1]; TAA 3 v/v % (highest concentration), after 21 hours, stage 38
  death of the Medaka embryo: died and caused the death of the Medaka embryo
[1]; TAA, the 4 highest concentrations
  death of the Medaka embryos: had died

## CNC(=O)Oc1cccc2ccccc12 [carbaryl]
[2]
  effects observed on early development: Red blood cell accumulation and delayed hatching
